# From US20160017312A1, “METHOD FOR MODULATING A BACTERIAL INVASION SWITCH” (priority 2012, published 2016)
# Tested on: S. meliloti cells
# Assay: Whole cell motility (swimming colonies) with added calcium
# Assay type: cell-based, Sinorhizobium meliloti
# Conditions: 1 mM Ca; protease active, non-swimming S. meliloti cells
# Description: Example 2. In no calcium or low calcium condition, most of ExoRm is in the monomeric form sensitive to protease digestion. Adding 1 mM or more Ca will turn ExoRm into dimeric form, preventing protease from binding and digesting ExoRm. So Ca is an indirect inhibitor of the protease. […] This is a typical indirect inhibitor. In the same fashion, most ions are indirect inhibitors of ExoRm protease.
# Example 1. Whole cell motility assay: The whole cell motility assay is based on the fact that inhibition of the protease lead to ExoRm increase and the cell becoming motile. The initial condition may be set with either low pH or low ion concentration, so that S. meliloti cells will form non-swimming colonies. The putative direct or indirect inhibitors can be mixed with S. meliloti cells in soft agar plates. The ones that can make S. meliloti cells to form swimming colonies are the potential direct or indirect inhibitors.
# Bacterial cell motility was examined using swarming plates containing 0.3% agar as described previously with some modifications. Briefly, fresh cell cultures were prepared and diluted to OD600 of 0.1. Then 2 μL of each diluted culture was inoculated into LB/MC soft agar plate and incubated for 2-3 days to determine colony size.
compound,measurement,value
[Ca+2] [Ca],effect on swimming of S. meliloti cells,"turn protease active, non-swimming S. meliloti cells into swimming cells"
